Assay results reported in ChEMBL document CHEMBL5506017, “Brain-Permeable Immunoproteasome-Targeting Macrocyclic Peptide Epoxyketones for Alzheimer's Disease” (J Med Chem, 2024).

Columns and labels:
[1] = Metabolic stability in human liver microsomes assessed as parent compound remaining at 2 uM measured at 60 mins by LC-MS/MS analysis; type: ADME, Microsome; details: 1 h
[2] = Drug uptake in BALB/c mouse brain at 40 mg/kg, iv measured after 2 hrs; type: ADME, organism-based; details: in vivo
[3] = Toxicity in BALB/c mouse assessed as paralysis at 40 mg/kg, iv; type: organism-based; details: in vivo
[4] = Drug uptake in BALB/c mouse spleen at 40 mg/kg, iv measured after 2 hrs; type: ADME, organism-based; details: in vivo
[5] = Clearance in BALB/c mouse at 40 mg/kg, iv measured upto 1440 mins by LC-MS/MS analysis; type: ADME, organism-based; details: in vivo, 24 h
[6] = Protein binding in human plasma assessed as unbound fraction; type: ADME, cell-free
[7] = Oral bioavailability in BALB/c mouse at 150 mg/kg measured after 15 to 360 mins by LC-MS/MS analysis; type: ADME, organism-based; details: in vivo, time 15-360 min
[8] = Half life in BALB/c mouse at 150 mg/kg, po measured after 15 to 360 mins by LC-MS/MS analysis; type: ADME, organism-based; details: in vivo, time 15-360 min
[9] = Metabolic stability in human liver microsomes assessed as half life at 2 uM measured upto 60 mins by LC-MS/MS analysis; type: ADME, Microsome; details: 1 h
[10] = Volume of distribution at steady state in BALB/c mouse at 40 mg/kg, iv measured upto 1440 mins by LC-MS/MS analysis; type: ADME, organism-based; details: in vivo, 24 h
[11] = Tmax in BALB/c mouse at 40 mg/kg, iv measured upto 1440 mins by LC-MS/MS analysis; type: ADME, organism-based; details: in vivo, 24 h
[12] = Toxicity in BALB/c mouse assessed as effect on weight loss at 100 mg/kg, po; type: organism-based; details: in vivo
[13] = Drug recovery in human plasma; type: ADME, cell-free
[14] = AUC (0 to last) in BALB/c mouse at 150 mg/kg, po measured after 15 to 360 mins by LC-MS/MS analysis; type: ADME, organism-based; details: in vivo, time 15-360 min
[15] = Unbound clearance in human plasma; type: ADME, cell-free
[16] = Apparent permeability of the compound across basal to apical side in human Caco-2 cells expressing Pgp/BCRP at 10 uM incubated for 120 mins by LC-MS/MS analysis; type: ADME, cell-based; details: caco-2, 2 h
[17] = Stability in human plasma; type: ADME, cell-free
[18] = Toxicity in BALB/c mouse assessed as tremor at 100 mg/kg, po; type: organism-based; details: in vivo
[19] = In vivo inhibition of LMP2 activity in BALB/c mouse blood at 150 mg/kg, po measured after 6 hrs post dose relative to control; type: functional
[20] = Tmax in BALB/c mouse plasma at 40 mg/kg, iv measured upto 1440 mins by LC-MS/MS analysis; type: ADME, organism-based
[21] = Toxicity in BALB/c mouse assessed as effect on hair loss at 100 mg/kg, po; type: organism-based; details: in vivo
[22] = Cmax in BALB/c mouse at 150 mg/kg, po measured after 15 to 360 mins by LC-MS/MS analysis; type: ADME, organism-based; details: in vivo, time 15-360 min
[23] = Toxicity in BALB/c mouse assessed as tremor at 40 mg/kg, iv; type: organism-based; details: in vivo
[24] = Toxicity in BALB/c mouse assessed as diarrhea at 40 mg/kg, iv; type: organism-based; details: in vivo
[25] = In vivo inhibition of LMP2 activity in BALB/c mouse brain at 150 mg/kg, po measured after 6 hrs post dose relative to control; type: functional
[26] = target: T1, Proteasome subunit beta type-9 (Homo sapiens, UniProt P28065); test: Inhibition of human LMP2 using Ac-PAL-AMC as substrate incubated for 1 hr by fluorescence based SpectraMax M5e plate reader
T1 sequence (P28065 whole entry): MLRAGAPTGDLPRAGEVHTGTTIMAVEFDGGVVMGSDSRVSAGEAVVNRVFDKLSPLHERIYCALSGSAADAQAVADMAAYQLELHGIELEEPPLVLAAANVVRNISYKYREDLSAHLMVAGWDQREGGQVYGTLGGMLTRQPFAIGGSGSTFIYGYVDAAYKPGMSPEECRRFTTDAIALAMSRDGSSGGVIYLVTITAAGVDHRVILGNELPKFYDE

HMC3 = test: Cytotoxicity against human HMC3 cells assessed as reduction in cell viability at 30 to 100 uM incubated for 96 hrs by CellTiter 96 Aqueous One Solution Cell Proliferation Assay; type: toxicity, cell-based; details: hmc3, 96 h, dose 30-100 µM
[27] = Cytotoxicity against human HMC3 cells assessed as reduction in cell viability incubated for 96 hrs by CellTiter 96 Aqueous One Solution Cell Proliferation Assay; type: toxicity, cell-based
[28] = AUC infinity in BALB/c mouse at 40 mg/kg, iv measured upto 1440 mins by LC-MS/MS analysis; type: ADME, organism-based; details: in vivo, 24 h
[29] = Drug uptake in BALB/c mouse kidney at 40 mg/kg, iv measured after 2 hrs; type: ADME, organism-based; details: in vivo
[30] = Efflux ratio of apparent permeability across basolateral to apical side over apical to basolateral side in human Caco-2 cells expressing Pgp/BCRP at 10 uM incubated for 120 mins by LC-MS/MS analysis; type: ADME, cell-based; details: caco-2, 2 h
[31] = AUC infinity in BALB/c mouse at 150 mg/kg, po measured after 15 to 360 mins by LC-MS/MS analysis; type: ADME, organism-based; details: in vivo, time 15-360 min
[32] = Tmax in BALB/c mouse at 150 mg/kg, po measured after 15 to 360 mins by LC-MS/MS analysis; type: ADME, organism-based; details: in vivo, time 15-360 min
[33] = In vivo inhibition of LMP2 activity in BALB/c mouse brain at 100 mg/kg, iv measured after 24 hrs relative to control; type: functional
[34] = C0 in BALB/c mouse at 40 mg/kg, iv measured upto 1440 mins by LC-MS/MS analysis; type: ADME, organism-based; details: in vivo, 24 h
[35] = Cytotoxicity against human ARPE-19 cells assessed as reduction in cell viability incubated for 96 hrs by CellTiter 96 Aqueous One Solution Cell Proliferation Assay; type: toxicity, cell-based
[36] = Drug uptake in BALB/c mouse lung at 40 mg/kg, iv measured after 2 hrs; type: ADME, organism-based; details: in vivo
[37] = Toxicity in BALB/c mouse at 100 mg/kg, iv measured for 72 hrs; type: organism-based; details: in vivo
[38] = In vivo inhibition of LMP2 activity in BALB/c mouse brain at 40 mg/kg, iv measured after 24 hrs relative to control; type: functional
[39] = Toxicity in BALB/c mouse assessed as effect on weight loss at 40 mg/kg, iv; type: organism-based; details: in vivo
[40] = Toxicity in BALB/c mouse assessed as effect on hair loss at 40 mg/kg, iv; type: organism-based; details: in vivo
[41] = In vivo inhibition of LMP2 activity in BALB/c mouse blood at 40 mg/kg, iv measured after 2 hrs relative to control; type: functional
[42] = Mutagenicity in Salmonella typhimurium TA98 at 0.01 to 100 uM incubated for 90 mins in absence of liver S9 fraction by AMES test; type: toxicity; details: salmonella enterica subsp. enterica serovar typhimurium, s9, 1.5 h, dose 0.01-100 µM
[43] = Drug uptake in BALB/c mouse liver at 40 mg/kg, iv measured after 2 hrs; type: ADME, organism-based; details: in vivo

Stability [1]: 33%
Drug uptake [2]: Active
Drug uptake [4]: Active
CL [5]: 70.88 mL/min/kg
Fu [6]: 0.45%
F [7]: 9.8%
t1/2 [8]: 47.5 min
t1/2 [9]: 38.4 min
Vdss [10]: 2572 mL/kg
Tmax [11]: 4.98 min
Drug recovery [13]: 74%
AUClast [14]: 3553 ng·h/mL
CL free [15]: 72 mL/min/kg
Papp [16]: 17.3 10^-6 cm/s
Stability [17]: 78%
Tmax [20]: 15 min
Cmax [22]: 3630 ng/mL
IC50 [26]: 87 nM
AUC [28]: 9689 ng·h/mL
Drug uptake [29]: Active
Ratio [30]: 2.62
AUC [31]: 3571 ng·h/mL
Tmax [32]: 20 min
C0 [34]: 31987 ng/mL
Drug uptake [36]: Not Active
Drug uptake [43]: Active
Structure (SMILES): CC(C)C[C@H](NC(=O)[C@@H]1COCCCCCC(=O)N2C[C@H](F)C[C@H]2C(=O)N1)C(=O)[C@@]1(C)CO1
Activity [3]: Non-Toxic
Activity [12]: Non-Toxic
Activity [18]: Non-Toxic
inhibition in vivo at 150 mg/kg [19]: 90%
Activity [21]: Non-Toxic
Activity [23]: Non-Toxic
Activity [24]: Non-Toxic
inhibition in vivo at 150 mg/kg [25]: 21%
Activity (HMC3): Non-Toxic
IC50 at 96 h [27]: > 100 µM
inhibition in vivo at 100 mg/kg [33]: 65%
IC50 at 96 h [35]: > 100 µM
Activity [37]: Non-Toxic
inhibition in vivo at 40 mg/kg [38]: 39%
Activity [39]: Non-Toxic
Activity [40]: Non-Toxic
inhibition in vivo at 40 mg/kg [41]: 100%
Activity [42]: Non-Toxic
